# Assay results reported in US20070197452A1, “Treatment of amyloid-related diseases” (priority 2006, published 2007).
# Entries after “also recorded” stand apart in the source; their conditions may differ. Marks after values point to notes of the source that are not given here.
# Legend:
# Assay type in all cases: in vivo, mouse
# Aβ42 = target: T1, Aβ42 (Homo sapiens, UniProt P05067); assay: Cerebral Aβ42 content of hemi-brain homogenates (commercial kit); details: for brain Aβ42 levels: TgCRND8 mice with pre-existing disease, 28 days from 5 months of age
# T1 construct: analyzed for Aβ40 and Aβ42 using commercially available kits; from tissue; host or cells: hemi-brain homogenates and plasma of TgCRND8 transgenic mice
# Protocol: Plasma and Cerebral Aβ Content. Hemi-brain samples were homogenized in a buffered sucrose solution, followed by either 0.4% diethylamine/100 mM NaCl for soluble Aβ levels or cold formic acid for the isolation of total Aβ. After neutralization, the samples were diluted and analyzed for Aβ40 and Aβ42 using commercially available kits (BIOSOURCE International). Each hemisphere was analyzed in triplicate and the mean values±SEM reported. Western blot analyses were performed on all fractions using urea gels for Aβ species analyses. Aβ was detected using 6E10 (BIOSOURCE International) and Enhanced Chemiluminenscence (Amersham).
# Plasma and cerebral Aβ content. Hemi-brain samples were homogenized in a buffered sucrose solution, followed by either a mixture of 0.4% diethylamine and 100 mM NaCl for soluble Aβ levels or cold formic acid for the isolation of total Aβ. After neutralization, samples were diluted and analyzed for Aβ40 and Aβ42 using commercially available kits (Biosource International). Each hemisphere was analyzed in triplicate and the mean±s.e.m. was reported. Western blot analyses were carried out on all fractions using urea gels for Aβ species analyses. Aβ was detected using 6E10 (Biosource International).
# TgCRND8 mice [1] = assay: Cerebral amyloid plaque burden (anti-Aβ immunostaining, image analysis); details: for amyloid burden in hippocampus and cerebral cortex: TgCRND8 mice at six months of age
# Protocol: Cerebral amyloid burden. […] To generate sets of systematic uniform random sections, 5 μm serial sections were collected across the entire hemisphere. Sets of sections at 50 μm intervals were used for analyses (10-14 sections/set). Plaques were identified after antigen retrieval with formic acid, and incubation with primary anti-Aβ antibody (Dako M-0872), followed by secondary antibody (Dako StreptABCcomplex/horseradish kit). End products were visualized with DAB and were counter-stained with luxol fast blue. Amyloid plaque burden was assessed with Leco IA-3001 image analysis software interfaced with Leica microscope and Hitachi KP-M1U CCD video camera. Openlab imaging software (Improvision, Lexington, Mass.) was then used to convert micrographs to binary images for plaque number and plaque area determinations. Vascular amyloid burden was defined as amyloid originating from or surrounding blood vessels and was analysed similarly. Cerebral Aβ burden. […] Sets of sections at […] intervals for analyses (10-14 sections per set) were used. Plaques with primary Aβ-specific antibody (Dako M-0872) were identified and visualized with DAB. AP plaque burden was assessed with Openlab imaging software (Improvision) and used to convert micrographs to binary images for determinations of plaque number and plaque area. Vascular Aβ burden was defined as Aβ plaques originating from or surrounding blood vessels and was analyzed similarly. Cerebral Aβ burden. […] To generate sets of systematic uniform random sections, 5 μm serial sections were collected across the entire hemisphere. Sets of sections at 50 μm intervals were used for analyses (10-14 sections/set). Plaques were identified after antigen retrieval with formic acid, and incubation with primary anti-Aβ antibody (Dako M-0872), followed by secondary antibody (Dako StreptABCcomplex/horseradish kit). End products were visualized with DAB and were counter-stained with luxol fast blue. Aβ plaque burden was assessed with Leco IA-3001 image analysis software interfaced with Leica microscope and Hitachi KP-M1U CCD video camera. Openlab imaging software (Improvision, Lexington, Mass.) was then used to convert micrographs to binary images for plaque number and plaque area determinations. Vascular Aβ burden was defined as Aβ plaques originating from or surrounding blood vessels and was analyzed similarly.
# TgCRND8 mice [2] = assay: Vascular amyloid (Aβ) burden; details: prophylactic treatment, vs untreated
# Protocol: Cerebral amyloid burden. Brains were removed and one hemisphere was fixed in 4% paraformaldehyde and embedded in paraffin wax in the mid sagittal plane. To generate sets of systematic uniform random sections, 5 μm serial sections were collected across the entire hemisphere. Sets of sections at 50 μm intervals were used for analyses (10-14 sections/set). Plaques were identified after antigen retrieval with formic acid, and incubation with primary anti-Aβ antibody (Dako M-0872), followed by secondary antibody (Dako StreptABCcomplex/horseradish kit). End products were visualized with DAB and were counter-stained with luxol fast blue. Amyloid plaque burden was assessed with Leco IA-3001 image analysis software interfaced with Leica microscope and Hitachi KP-M1U CCD video camera. Openlab imaging software (Improvision, Lexington, Mass.) was then used to convert micrographs to binary images for plaque number and plaque area determinations. Vascular amyloid burden was defined as amyloid originating from or surrounding blood vessels and was analysed similarly.
# Cerebral Aβ burden. Brains were removed and fixed one hemisphere from each in 4% paraformaldehyde and embedded in paraffin wax in the midsagittal plane. Sets of sections at […] intervals for analyses (10-14 sections per set) were used. Plaques with primary Aβ-specific antibody (Dako M-0872) were identified and visualized with DAB. AP plaque burden was assessed with Openlab imaging software (Improvision) and used to convert micrographs to binary images for determinations of plaque number and plaque area. Vascular Aβ burden was defined as Aβ plaques originating from or surrounding blood vessels and was analyzed similarly.
# Cerebral Aβ burden. Brains were removed and one hemisphere was fixed in 4% paraformaldehyde and embedded in paraffin wax in the mid sagittal plane. […] Aβ plaque burden was assessed with Leco IA-3001 image analysis software interfaced with Leica microscope and Hitachi KP-M1U CCD video camera. […] Vascular Aβ burden was defined as Aβ plaques originating from or surrounding blood vessels and was analyzed similarly.
# TgCRND8 mice [3] = assay: Survival census (Kaplan-Meier); details: prophylactic treatment, vs untreated, n=35 per group
# Protocol: Survival Census: The probability of survival was assessed by the Kaplan-Meier technique, computing the probability of survival at every occurrence of death, thus making it suitable for small sample sizes. For the analyses of survival, 35 mice were used for each treatment group. The Tarone-Ware test was used to assess effects of treatments.
# Survival census. The probability of survival was assessed using the Kaplan-Meier technique, computing the probability of survival at every occurrence of death, thus making it suitable for small sample sizes. For the analyses of survival, 35 mice were used for each treatment group. The Tarone-Ware test was used to assess effects of treatments.
# [4] = 1 month Treatment: TgCRND8 mice, oral from 5 to 6 months of age
# [5] = 4-month Prophylactic: TgCRND8 mice, oral from 6 weeks to 4 months of age
# [6] = 6-month Prophylactic: TgCRND8 mice, oral from 6 weeks to 6 months of age
# [7] = TgCRND8 mice with pre-existing disease, 28 days from 5 months of age
# [8] = TgCRND8 mice, oral, 28 days from 5 months of age, analysed at 6 months, listed as Epi-cyclohexanchexol
# [9] = TgCRND8 mice, prophylactic, 6 months of age
# [10] = TgCRND8 mice, 28 day course at 5 months of age, vs untreated
# [11] = TgCRND8 mice, oral, 28 days from 5 months of age, analysed at 6 months
# T1 sequence (P05067 672-713 limits assumed): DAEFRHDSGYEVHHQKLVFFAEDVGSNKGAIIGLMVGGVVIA
structure (smiles),measurement,setting,value
"OC1C(O)C(O)C(O)C(O)C1O (stereo not drawn) [epi-cyclohexanehexol, 1,2,3,4,5/6-(epi-) cyclohexanehexol, reference compound]",brain Aβ42 levels,Aβ42,no significant impact; also recorded: no significant effect
same,reduction of brain Aβ42 (range given for both Aβ40 and Aβ42),"Aβ42; TgCRND8 mice, prophylactic treatment, 4 months of age",22-62 % reduction
same,Mean Plaque Size (μm^2),TgCRND8 mice [1]; [4],346 ± 6 μm^2
same,Total Plaque Area (μm^2),TgCRND8 mice [1]; [4],459706 ± 49966 μm^2
same,Mean Plaque Size (μm^2),TgCRND8 mice [1]; [5],95 ± 43 μm^2
same,Total Plaque Area (μm^2),TgCRND8 mice [1]; [5],65042 ± 5199 μm^2
same,Mean Plaque Size (μm^2),TgCRND8 mice [1]; [6],370 ± 9 μm^2
same,Total Plaque Area (μm^2),TgCRND8 mice [1]; [6],380456 ± 13498 μm^2
same,amyloid burden in hippocampus and cerebral cortex,TgCRND8 mice [1],modest effect on amyloid burden
same,amyloid burden in hippocampus and cerebral cortex,TgCRND8 mice [1]; listed as AZD-102,modest effect on amyloid burden
same,percent area of the brain covered with plaques,TgCRND8 mice [1]; [7],no significant impact; also recorded: no significant effect
same,plaque number,TgCRND8 mice [1]; [7],no significant impact; also recorded: no significant effect
same,Mean Plaque Size (μm^2),TgCRND8 mice [1]; [8],346 ± 6 μm^2
same,Total Plaque Area (μm^2),TgCRND8 mice [1]; [8],459706 ± 49966 μm^2
same,Total Plaque Count,TgCRND8 mice [1]; [8],1342 ± 114
same,mean plaque size,"TgCRND8 mice [1]; TgCRND8 mice, prophylactic, 4 months of age",significant decrease in mean plaque size
same,mean plaque size,TgCRND8 mice [1]; [9],reductions were not sustained
same,total vascular Aβ load / vascular Aβ deposits,TgCRND8 mice [2],no change
same,survival (Kaplan-Meier cumulative survival),TgCRND8 mice [3]; listed as AZD-102,did not significantly improve survival
same,survival (Kaplan-Meier cumulative survival),TgCRND8 mice [3]; listed as Epi-cyclohexanehexol,did not significantly improve survival
"OC1C(O)C(O)C(O)C(O)C1O (centres unmarked) [scyllo-cyclohexanehexol, 1,3,5/2,4,6-(scyllo-) cyclohexanehexol]",brain Aβ42 levels,Aβ42,reduced levels
same,Mean Plaque Size (μm^2),TgCRND8 mice [1]; [4],336 ± 6* μm^2
same,Total Plaque Area (μm^2),TgCRND8 mice [1]; [4],420027 ± 14986* μm^2
same,Mean Plaque Size (μm^2),TgCRND8 mice [1]; [5],103 ± 4* μm^2
same,Total Plaque Area (μm^2),TgCRND8 mice [1]; [5],63847 ± 2895 μm^2
same,Mean Plaque Size (μm^2),TgCRND8 mice [1]; [6],339 ± 10† μm^2
same,Total Plaque Area (μm^2),TgCRND8 mice [1]; [6],262379 ± 5373† μm^2
same,amyloid burden in hippocampus and cerebral cortex,TgCRND8 mice [1],significantly decreased amyloid burden
same,amyloid burden in hippocampus and cerebral cortex,TgCRND8 mice [1]; listed as AZD-103,significantly decreased amyloid burden
same,effect on pathology,"TgCRND8 mice [1]; TgCRND8 mice treated for 2 months, ending at 7 months of age",Sustained effects
same,percent area of the brain covered with plaques,TgCRND8 mice [1]; [7],significantly reduced
same,plaque number,TgCRND8 mice [1]; [7],significantly reduced
same,plaque size,TgCRND8 mice [1]; [7],significantly reduced
same,"plaque count, dose-response","TgCRND8 mice [1]; TgCRND8 mice, 0.3-30 mg/kg/d orally, 4 months of age, 6F3D immunostaining",dose-dependent decrease; also recorded: improvement
same,"percent area of the brain covered by plaques, reduction",TgCRND8 mice [1]; [10],14±0.5 % reduction
same,plaque number reduction,TgCRND8 mice [1]; [10],13±0.3 % reduction
same,plaque size reduction,TgCRND8 mice [1]; [10],16±0.4 % reduction
same,plaque burden in hippocampus,"TgCRND8 mice [1]; TgCRND8 mice, one month of treatment from 5 months of age",lower plaque burden
same,Mean Plaque Size (μm^2),TgCRND8 mice [1]; [11],336 ± 6* μm^2
same,Total Plaque Area (μm^2),TgCRND8 mice [1]; [11],420027 ± 14986* μm^2
same,Total Plaque Count,TgCRND8 mice [1]; [11],1260 ± 27
same,mean plaque size,TgCRND8 mice [1]; [9],smaller mean plaque size
same,all measures of plaque burden,"TgCRND8 mice [1]; TgCRND8 mice, prophylactic, at 4 and 6 months of age",sustained decrease in all measures of plaque burden
same,brain area covered by cerebrovascular Aβ,TgCRND8 mice [2],reduced brain area covered by cerebrovascular Aβ
same,mean size of cerebrovascular deposits,TgCRND8 mice [2],reduced mean size of cerebrovascular deposits
same,survival (Kaplan-Meier cumulative survival),TgCRND8 mice [3],accelerated mortality was reversed; also recorded: increased survival
same,survival (Kaplan-Meier cumulative survival),TgCRND8 mice [3]; listed as AZD-103,increased survival
